Legend:
AKT = conditions: BSA, N-terminal, C-terminal and full-length SVEP1
platelets = tested on: platelets
Description: Complete blood counts (CBC) and washed platelet counts were determined using a hematology analyzer Element HT5 (Heska, Loveland). […] For flow cytometry, diluted whole blood or isolated platelets were pre-incubated with their respective fluorescent antibodies for 15 minutes and fixed. For murine whole blood: CD41-VioBlue, CD61-PE (Mitlenyi Biotec, Bergisch Gladbach, Germany), CD42b-DL649, GPVI-FITC (Emfret, Eibelstadt, Germany) and for human whole blood and isolated platelets: CD41-FITC, CD61-APC, CD42b-PE (Biolegend, San Diego), GPVI-BV421 617 (BD, Franklin Lakes). Platelet surface receptor levels were quantified by flow cytometry on a 618 CytoFlex analyzer.

Pearl 1 = molecular target: T1, Pearl 1 (Homo sapiens, UniProt Q5VY43); assay: Pearl 1 immunoprecipitation and pTyrosine immunoblot, platelets; format: cell-based; conditions: 15 minutes exposure, vs BSA
T1 construct: endogenous in cells; host or cells: freshly isolated human platelets
T1 sequence (Q5VY43 21-1037): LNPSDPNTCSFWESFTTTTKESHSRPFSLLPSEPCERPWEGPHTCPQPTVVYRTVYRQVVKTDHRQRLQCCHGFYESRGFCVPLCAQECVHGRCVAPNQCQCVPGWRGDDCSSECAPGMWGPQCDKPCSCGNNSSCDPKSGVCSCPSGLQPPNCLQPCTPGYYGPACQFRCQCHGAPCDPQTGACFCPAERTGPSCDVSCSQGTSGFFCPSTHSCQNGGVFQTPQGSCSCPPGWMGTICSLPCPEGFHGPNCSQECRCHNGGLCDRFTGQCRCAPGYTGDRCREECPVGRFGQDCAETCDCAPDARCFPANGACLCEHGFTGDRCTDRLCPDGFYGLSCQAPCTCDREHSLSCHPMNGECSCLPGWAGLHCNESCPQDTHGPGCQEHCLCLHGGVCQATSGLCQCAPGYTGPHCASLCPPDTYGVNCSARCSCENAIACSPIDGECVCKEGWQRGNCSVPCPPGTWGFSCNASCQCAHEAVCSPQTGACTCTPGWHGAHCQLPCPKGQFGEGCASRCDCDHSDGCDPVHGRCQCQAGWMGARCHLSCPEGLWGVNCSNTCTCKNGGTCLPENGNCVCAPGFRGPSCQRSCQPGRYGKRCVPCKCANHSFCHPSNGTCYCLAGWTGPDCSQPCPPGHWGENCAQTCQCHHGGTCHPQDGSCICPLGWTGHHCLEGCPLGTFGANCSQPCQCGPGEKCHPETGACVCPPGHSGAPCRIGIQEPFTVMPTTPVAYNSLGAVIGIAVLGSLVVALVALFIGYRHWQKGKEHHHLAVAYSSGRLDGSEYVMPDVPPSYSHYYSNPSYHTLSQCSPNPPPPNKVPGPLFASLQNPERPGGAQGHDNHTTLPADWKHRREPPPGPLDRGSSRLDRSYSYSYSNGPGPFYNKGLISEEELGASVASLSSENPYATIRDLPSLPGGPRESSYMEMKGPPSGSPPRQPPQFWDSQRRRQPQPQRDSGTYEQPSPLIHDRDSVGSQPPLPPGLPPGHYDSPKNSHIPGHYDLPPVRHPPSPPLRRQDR
Description: Subsequently, 204, of BSA-blocked Invitrogen Protein A Dynabeads slurry was added, followed by rotation for 45 minutes. The beads were separated using magnetism and washed with RIPA buffer 4-5 times, then resuspended with reducing LDS sample buffer and analyzed by immunoblot assay. Bands for p-tyrosine and Pearl 1 were detected at ˜140 kDa.
Prior to performing signaling assays, cells were trypsinized, centrifuged, suspended in basal media, and counted using an automated hemocytometer. Cells were further diluted in basal media to an assay-dependent concentration. Cells were then incubated with gentle agitation for 60 minutes to prevent cell attachment and reduce basal signaling. PP1, Dynasore, MK-2206, and Rapamycin were diluted in DMSO and used in assay concentrations of 10 μM, 100 μM, 10 μM, and respectively, for the final 20-30 minutes of incubation in basal media. An equal volume of DMSO was used as the negative control condition. […] 1 μg Pearl 1 polyclonal antibody was added as a specific positive control. 20% growth media or 2% fetal bovine serum, labeled “Serum” in figures, was added as a non-specific positive control. The cells were centrifuged at 300G for 3 minutes with the exception of platelets, which were centrifuged at 500G for 5 minutes. […] Protein content was determined using a bicinchoninic acid assay with BSA standards (#23225, Pierce BCA Protein Assay Kit). […]

Fibronectin = Fibronectin (Mus musculus, UniProt P11276); conditions: enriched VSMC media
Sequence of Fibronectin (P11276 33-2477): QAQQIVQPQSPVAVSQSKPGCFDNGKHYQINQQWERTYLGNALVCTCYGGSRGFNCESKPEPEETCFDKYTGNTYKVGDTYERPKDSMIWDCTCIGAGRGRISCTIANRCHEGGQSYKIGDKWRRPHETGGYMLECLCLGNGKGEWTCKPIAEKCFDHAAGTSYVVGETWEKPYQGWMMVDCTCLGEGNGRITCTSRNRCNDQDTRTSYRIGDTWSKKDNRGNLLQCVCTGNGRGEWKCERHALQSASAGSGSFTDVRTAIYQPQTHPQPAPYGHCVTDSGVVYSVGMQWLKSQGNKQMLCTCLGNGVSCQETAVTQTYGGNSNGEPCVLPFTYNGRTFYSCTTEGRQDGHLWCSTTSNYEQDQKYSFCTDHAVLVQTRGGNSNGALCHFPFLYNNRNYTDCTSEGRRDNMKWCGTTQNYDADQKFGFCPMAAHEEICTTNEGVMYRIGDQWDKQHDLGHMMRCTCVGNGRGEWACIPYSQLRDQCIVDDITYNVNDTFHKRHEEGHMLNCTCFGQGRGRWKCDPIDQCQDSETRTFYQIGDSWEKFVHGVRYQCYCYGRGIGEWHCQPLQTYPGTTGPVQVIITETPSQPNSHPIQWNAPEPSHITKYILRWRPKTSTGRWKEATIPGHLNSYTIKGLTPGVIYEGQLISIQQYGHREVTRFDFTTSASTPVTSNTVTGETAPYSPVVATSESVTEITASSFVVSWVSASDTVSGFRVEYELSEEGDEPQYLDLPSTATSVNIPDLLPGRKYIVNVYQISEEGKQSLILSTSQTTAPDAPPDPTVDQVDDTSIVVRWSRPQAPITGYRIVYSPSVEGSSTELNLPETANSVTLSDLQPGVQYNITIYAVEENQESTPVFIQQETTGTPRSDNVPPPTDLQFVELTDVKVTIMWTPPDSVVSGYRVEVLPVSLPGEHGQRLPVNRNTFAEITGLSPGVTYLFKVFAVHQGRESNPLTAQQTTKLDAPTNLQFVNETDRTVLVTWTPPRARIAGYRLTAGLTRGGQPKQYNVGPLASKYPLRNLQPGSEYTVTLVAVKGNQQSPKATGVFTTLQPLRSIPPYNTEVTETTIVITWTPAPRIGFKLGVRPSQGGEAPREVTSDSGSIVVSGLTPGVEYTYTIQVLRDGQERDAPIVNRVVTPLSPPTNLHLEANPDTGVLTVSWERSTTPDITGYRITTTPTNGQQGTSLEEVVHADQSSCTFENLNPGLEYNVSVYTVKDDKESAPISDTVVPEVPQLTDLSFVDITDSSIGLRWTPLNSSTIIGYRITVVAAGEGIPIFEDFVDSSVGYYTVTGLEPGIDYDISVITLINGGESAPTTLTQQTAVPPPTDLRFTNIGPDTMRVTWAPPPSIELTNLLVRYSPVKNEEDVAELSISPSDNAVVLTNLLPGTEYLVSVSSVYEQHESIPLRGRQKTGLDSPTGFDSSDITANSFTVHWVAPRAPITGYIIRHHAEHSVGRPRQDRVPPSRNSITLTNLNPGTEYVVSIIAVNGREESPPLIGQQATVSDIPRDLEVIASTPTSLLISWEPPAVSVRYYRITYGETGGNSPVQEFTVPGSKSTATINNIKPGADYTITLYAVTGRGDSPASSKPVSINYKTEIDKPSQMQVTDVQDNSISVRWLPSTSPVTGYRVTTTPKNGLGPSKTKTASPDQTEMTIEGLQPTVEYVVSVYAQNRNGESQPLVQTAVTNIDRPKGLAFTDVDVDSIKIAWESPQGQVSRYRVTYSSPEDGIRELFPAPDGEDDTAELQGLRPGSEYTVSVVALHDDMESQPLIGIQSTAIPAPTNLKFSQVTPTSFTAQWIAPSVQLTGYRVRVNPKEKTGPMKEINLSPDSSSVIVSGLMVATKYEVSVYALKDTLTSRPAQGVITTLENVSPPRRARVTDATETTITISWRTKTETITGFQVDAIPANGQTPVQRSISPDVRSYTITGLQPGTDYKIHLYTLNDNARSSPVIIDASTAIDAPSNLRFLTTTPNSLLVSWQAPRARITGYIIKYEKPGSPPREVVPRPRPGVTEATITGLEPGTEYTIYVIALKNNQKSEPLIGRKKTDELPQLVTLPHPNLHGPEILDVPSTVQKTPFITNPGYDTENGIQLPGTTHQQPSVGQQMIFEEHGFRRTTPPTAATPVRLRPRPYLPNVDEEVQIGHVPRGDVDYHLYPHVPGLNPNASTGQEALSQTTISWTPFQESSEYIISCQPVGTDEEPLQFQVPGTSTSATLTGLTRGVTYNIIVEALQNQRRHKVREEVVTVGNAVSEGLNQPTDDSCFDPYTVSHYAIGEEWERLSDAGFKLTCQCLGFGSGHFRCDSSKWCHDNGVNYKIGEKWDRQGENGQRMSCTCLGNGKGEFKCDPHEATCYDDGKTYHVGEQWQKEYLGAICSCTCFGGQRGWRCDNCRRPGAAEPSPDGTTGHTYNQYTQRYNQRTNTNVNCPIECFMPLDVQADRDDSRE
Description: Affinity-based proteomics: Murine VSMCs were grown to confluence in serum-containing media and changed to serum-free media to generate enriched media. […] An aliquot was removed after incubation as the “input” fraction. Media was then added to a slurry of Pierce Anti-c-Myc Magnetic Beads+0.05% Tween 20 and incubated for 30 minutes while rocking at 4° C. The beads were then washed twice with Ca^2+ and Mg^2+-containing PBS (D8662, Sigma) +0.05% Tween 20 and twice with Ca^2+ and Mg^2+-containing PBS before a final resuspension in PBS. An aliquot of the beads was reserved as the pulldown fraction for validation. […] The samples were incubated for 4 hours prior to dialysis. Protease arrest (G-Biosciences) was added and excess biotin was dialyzed using a 10 kDa molecular weight cut-off (MWKO) Slide-A-Lyzer™ dialysis Cassette (ThermoFisher Scientific) in buffered saline+1 mM EDTA. The samples were then transferred to 10 kDa MWKO Vivasin column (Sartorius Stedim Biotech), centrifuged, resuspended in RIPA buffer, centrifuged, and added to pre-washed Pierce Streptavidin Magnetic Beads. The samples and beads were incubated for 1 hour at room temperature or overnight at 4° C. and then washed with the following solutions: RIPA buffer, 1M 732 KCl, 0.1M Na2CO3, 2M urea in 10 mM Tris HCl (pH=8.0), and PBS. The beads were then resuspended in PBS for peptide preparation.

Description for THP-1 cells: 2,000 cells were added to each well and incubated for 8 hr to assure complete cell adhesion. […] Adhesion assays were performed in precoated 96-well plates blocked with 100 mg ml-l BSA. Blocking conditions were empirically derived to minimize non-specific cell adhesion. After 5 min (for THP-1 cells) or 15 min (for VSMCs) incubation, non-adhered cells were removed by gently centrifuging the plates upside down. VSMCs were counted manually and THP-1 cells were counted by automated microscopy after staining cells with DAPI.

phospho-tyrosine signal of Pearl 1 (140 kDa) (Pearl 1): robust phospho-tyrosine signal
pulldown of Fibronectin (Fibronectin): confirmed
Substance: SVEP1: recombinant murine SVEP1 extracellular matrix protein with Myc and poly-histidine tag, expressed in 293F cells
activation of AKT signaling (phospho-AKT) (AKT): necessary to activate AKT signaling
platelet aggregation and agglutination (platelets; platelets from mice compared to humans): notably milder
platelet aggregation (decrease in whole blood platelet count) (platelets; soluble recombinant SVEP1, human whole blood): induced spontaneous platelet aggregation and agglutination
adhesion of THP-1 cells (THP-1 cells): adhered to SVEP1 in a dose-dependent manner
